Assay results taken from the supplement of paper PMC12463676, “Small-molecule dissolution of stress granules by redox modulation benefits ALS models” (Nature Chemical Biology, 2025).
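Further: each temperature applied for 3 min, abundance score taken as mean log2 fold change at the two lowest temperatures, z-score obtained by mean subtraction and division by SD.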

Sequence of UniProt P27361 (P27361 whole entry): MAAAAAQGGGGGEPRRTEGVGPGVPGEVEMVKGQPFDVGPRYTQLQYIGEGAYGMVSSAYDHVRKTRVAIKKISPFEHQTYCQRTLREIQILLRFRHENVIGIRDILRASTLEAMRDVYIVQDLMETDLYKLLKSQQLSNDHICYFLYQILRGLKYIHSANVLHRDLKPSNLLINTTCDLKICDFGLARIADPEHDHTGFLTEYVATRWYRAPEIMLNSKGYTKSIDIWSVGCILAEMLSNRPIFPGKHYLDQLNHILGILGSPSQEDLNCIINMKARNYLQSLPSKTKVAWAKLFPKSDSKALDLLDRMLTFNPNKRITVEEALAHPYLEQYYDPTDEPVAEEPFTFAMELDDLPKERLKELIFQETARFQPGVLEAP
Sequence of UniProt O95782 (O95782 whole entry): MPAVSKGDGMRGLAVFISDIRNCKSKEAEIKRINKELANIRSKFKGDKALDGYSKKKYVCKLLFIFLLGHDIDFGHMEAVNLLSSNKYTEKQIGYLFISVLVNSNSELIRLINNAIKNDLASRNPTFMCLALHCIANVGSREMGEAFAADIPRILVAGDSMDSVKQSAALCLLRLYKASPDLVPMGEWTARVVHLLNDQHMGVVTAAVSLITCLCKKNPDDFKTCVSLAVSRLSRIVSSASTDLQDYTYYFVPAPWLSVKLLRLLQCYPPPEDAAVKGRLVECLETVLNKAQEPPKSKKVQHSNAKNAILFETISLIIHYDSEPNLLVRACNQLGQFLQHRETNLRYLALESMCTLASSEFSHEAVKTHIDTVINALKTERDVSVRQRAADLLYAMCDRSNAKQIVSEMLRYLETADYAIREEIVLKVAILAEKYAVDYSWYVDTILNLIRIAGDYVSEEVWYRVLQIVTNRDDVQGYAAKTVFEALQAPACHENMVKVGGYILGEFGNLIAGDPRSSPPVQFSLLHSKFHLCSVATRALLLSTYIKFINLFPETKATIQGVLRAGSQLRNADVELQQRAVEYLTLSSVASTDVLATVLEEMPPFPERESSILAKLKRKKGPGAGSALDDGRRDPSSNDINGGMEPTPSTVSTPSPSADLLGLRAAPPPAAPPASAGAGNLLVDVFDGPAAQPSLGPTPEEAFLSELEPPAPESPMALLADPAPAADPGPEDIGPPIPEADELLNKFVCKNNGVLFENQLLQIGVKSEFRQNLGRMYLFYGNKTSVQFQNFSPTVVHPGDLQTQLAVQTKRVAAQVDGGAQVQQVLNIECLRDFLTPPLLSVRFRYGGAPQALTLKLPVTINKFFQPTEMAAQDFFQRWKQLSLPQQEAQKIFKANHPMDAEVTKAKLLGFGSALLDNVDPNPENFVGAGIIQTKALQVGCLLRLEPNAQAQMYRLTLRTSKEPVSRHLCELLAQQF
Sequence of UniProt Q8TCX1 (Q8TCX1 whole entry): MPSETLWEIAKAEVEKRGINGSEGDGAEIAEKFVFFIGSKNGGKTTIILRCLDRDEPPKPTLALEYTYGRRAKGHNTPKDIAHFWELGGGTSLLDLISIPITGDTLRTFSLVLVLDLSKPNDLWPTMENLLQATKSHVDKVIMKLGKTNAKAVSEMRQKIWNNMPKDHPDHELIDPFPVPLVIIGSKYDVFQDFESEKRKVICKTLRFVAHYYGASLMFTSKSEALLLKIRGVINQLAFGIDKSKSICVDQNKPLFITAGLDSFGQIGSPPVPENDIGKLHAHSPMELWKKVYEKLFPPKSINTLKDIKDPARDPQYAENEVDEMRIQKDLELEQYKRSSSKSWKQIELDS
Sequence of UniProt Q9H4L7 (Q9H4L7 whole entry): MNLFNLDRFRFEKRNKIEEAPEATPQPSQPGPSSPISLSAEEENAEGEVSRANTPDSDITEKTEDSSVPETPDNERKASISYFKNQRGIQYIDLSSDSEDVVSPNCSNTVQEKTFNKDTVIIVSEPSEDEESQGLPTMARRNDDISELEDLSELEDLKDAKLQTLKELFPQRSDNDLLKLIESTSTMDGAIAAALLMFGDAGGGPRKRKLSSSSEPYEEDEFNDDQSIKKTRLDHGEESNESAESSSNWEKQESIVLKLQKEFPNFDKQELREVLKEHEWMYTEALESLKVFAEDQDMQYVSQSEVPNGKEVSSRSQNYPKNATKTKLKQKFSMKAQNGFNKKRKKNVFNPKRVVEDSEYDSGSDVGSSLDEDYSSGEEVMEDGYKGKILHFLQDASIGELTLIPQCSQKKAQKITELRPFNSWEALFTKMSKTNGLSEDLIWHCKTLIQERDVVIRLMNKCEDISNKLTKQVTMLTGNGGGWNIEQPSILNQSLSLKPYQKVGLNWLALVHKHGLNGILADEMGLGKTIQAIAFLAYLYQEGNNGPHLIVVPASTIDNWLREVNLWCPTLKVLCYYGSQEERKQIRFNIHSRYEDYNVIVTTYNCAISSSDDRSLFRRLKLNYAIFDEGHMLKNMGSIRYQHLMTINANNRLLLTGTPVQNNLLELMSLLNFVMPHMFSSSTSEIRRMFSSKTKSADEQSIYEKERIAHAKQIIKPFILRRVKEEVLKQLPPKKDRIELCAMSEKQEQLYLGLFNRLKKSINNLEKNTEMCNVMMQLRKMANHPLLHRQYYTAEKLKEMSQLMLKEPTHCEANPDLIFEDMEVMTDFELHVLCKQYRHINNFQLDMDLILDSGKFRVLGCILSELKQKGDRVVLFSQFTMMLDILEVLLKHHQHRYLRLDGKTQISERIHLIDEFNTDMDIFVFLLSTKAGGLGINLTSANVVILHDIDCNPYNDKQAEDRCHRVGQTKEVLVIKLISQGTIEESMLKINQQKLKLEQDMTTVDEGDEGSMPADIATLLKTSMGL
Sequence of UniProt Q9UBB5 (Q9UBB5 whole entry): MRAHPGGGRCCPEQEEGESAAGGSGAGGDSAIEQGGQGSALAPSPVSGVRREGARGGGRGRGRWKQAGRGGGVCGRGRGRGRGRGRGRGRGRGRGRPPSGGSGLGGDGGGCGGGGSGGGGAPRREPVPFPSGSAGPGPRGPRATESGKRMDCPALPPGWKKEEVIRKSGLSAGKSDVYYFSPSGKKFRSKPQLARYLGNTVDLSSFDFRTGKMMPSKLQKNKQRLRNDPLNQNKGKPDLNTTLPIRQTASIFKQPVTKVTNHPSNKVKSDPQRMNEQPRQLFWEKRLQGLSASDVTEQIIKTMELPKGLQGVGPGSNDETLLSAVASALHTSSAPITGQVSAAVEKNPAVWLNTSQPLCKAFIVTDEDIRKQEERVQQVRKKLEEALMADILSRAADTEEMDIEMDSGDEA
Sequence of UniProt Q9BX95 (Q9BX95 whole entry): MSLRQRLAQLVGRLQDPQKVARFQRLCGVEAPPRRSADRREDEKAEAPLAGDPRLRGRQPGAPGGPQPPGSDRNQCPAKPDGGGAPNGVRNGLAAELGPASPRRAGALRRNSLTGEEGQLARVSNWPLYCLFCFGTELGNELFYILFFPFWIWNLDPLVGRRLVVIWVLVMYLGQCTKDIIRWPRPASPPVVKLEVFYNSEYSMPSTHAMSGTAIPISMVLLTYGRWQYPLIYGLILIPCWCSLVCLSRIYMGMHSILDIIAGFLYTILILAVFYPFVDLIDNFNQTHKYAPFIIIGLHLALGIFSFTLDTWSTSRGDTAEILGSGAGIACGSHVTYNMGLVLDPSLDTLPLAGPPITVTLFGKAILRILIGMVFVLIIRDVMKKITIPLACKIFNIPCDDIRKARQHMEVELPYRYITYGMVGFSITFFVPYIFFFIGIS
Sequence of UniProt Q9UH99 (Q9UH99 whole entry): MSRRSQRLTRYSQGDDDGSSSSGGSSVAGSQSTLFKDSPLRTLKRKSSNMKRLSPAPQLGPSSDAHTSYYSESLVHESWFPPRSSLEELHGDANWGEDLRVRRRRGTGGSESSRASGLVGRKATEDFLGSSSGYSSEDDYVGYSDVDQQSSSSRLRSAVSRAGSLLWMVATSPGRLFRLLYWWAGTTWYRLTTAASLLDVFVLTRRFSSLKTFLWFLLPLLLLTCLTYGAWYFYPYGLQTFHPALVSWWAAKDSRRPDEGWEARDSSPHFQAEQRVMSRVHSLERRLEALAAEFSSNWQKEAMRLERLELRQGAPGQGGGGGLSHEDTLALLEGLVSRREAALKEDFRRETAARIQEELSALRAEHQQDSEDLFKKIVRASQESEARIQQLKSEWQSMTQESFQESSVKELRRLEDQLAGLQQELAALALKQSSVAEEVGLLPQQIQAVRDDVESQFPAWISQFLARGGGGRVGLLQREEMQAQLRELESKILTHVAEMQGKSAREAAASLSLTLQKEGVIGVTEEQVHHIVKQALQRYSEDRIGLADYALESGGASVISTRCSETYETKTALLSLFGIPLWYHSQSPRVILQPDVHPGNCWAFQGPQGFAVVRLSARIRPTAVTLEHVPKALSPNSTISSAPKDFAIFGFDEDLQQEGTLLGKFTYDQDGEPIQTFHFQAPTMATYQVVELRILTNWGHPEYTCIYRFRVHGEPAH
Sequence of UniProt Q15906 (Q15906 whole entry): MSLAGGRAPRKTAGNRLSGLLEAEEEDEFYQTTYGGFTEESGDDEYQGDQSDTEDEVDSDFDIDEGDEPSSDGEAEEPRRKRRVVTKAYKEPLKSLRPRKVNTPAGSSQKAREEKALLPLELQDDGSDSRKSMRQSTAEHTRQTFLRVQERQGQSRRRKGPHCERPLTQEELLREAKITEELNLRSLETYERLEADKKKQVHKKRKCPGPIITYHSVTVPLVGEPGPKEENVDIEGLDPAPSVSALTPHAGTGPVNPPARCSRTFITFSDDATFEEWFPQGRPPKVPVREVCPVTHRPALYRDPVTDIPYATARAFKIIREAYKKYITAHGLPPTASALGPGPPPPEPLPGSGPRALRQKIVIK
Sequence of UniProt Q96BM9 (Q96BM9 whole entry): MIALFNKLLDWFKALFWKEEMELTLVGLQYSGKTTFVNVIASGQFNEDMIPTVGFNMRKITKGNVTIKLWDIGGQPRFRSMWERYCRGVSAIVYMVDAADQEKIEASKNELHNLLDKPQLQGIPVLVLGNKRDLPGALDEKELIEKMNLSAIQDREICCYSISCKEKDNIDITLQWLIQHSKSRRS
Sequence of UniProt Q7RTV0 (Q7RTV0 whole entry, looked up): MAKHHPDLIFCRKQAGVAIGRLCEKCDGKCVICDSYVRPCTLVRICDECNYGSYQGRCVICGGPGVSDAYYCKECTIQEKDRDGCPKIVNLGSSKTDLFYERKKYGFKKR

The targets below were run with NC(=O)CCCCC1CCSS1 [lipoamide] (assay: thermal stability z-score vs DMSO; higher = more thermally stabilized by treatment). Settings: HeLa; lipoamide concentration 100 µM; arsenate co-treatment: 1 mM arsenate 1 h.
Procedure: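 Cellular thermal proteome profiling in HeLa cells. Cells were treated with 100 µM lipoamide for 1 h, with or without 1 mM arsenate for a further 1 h, then heated to ten temperatures (37-66.3 °C), and soluble protein was quantified by TMT mass spectrometry relative to 0.1% DMSO controls. The thermal stability score (sum of log2 fold changes minus the abundance score) was transformed to a z-score; mean of n = 3 experiments.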
SMARCAD1 (UniProt Q9H4L7) gave a thermal stability z-score of -1.27.
Target MBD2 (UniProt Q9UBB5) has a thermal stability z-score of 0.0418.
With MAP4K3 (UniProt Q8IVH8) the thermal stability z-score was 0.23.
SUN2 (UniProt Q9UH99) gave a thermal stability z-score of -1.43.
For MTMR14 (UniProt Q8NCE2), the thermal stability z-score was -1.39.
In the case of VPS72 (UniProt Q15906), the thermal stability z-score is reported as 1.96.
Target GOLIM4 (UniProt O00461) has a thermal stability z-score of -0.589.
Target NCOA4 (UniProt Q13772) has a thermal stability z-score of -0.252.
Target SMARCA2 (UniProt P51531) has a thermal stability z-score of -0.0738.
HSP90AB1 (UniProt P08238) showed a thermal stability z-score of -0.421.
With MAEA (UniProt Q7L5Y9) the thermal stability z-score was -0.402.
Work on DYNC2LI1 (UniProt Q8TCX1) yielded a thermal stability z-score of 0.0696.
With CREBBP (UniProt Q92793) the thermal stability z-score was 0.397.
AP2A1 (UniProt O95782) was tested, and the thermal stability z-score was -0.0653.
MPP5 (UniProt Q8N3R9) gave a thermal stability z-score of -0.0805.
DHX29 (UniProt Q7Z478) gave a thermal stability z-score of 0.104.
MAPK3 (UniProt P27361) showed a thermal stability z-score of -0.115.
In the case of PSIP1 (UniProt O75475), the thermal stability z-score is reported as 0.499.
ARL8A (UniProt Q96BM9) was tested, and the thermal stability z-score was 0.375.
For SLC30A5 (UniProt Q8TAD4), the thermal stability z-score was -0.202.
For ICT1 (UniProt Q14197), the thermal stability z-score was -0.321.
Work on SGPP1 (UniProt Q9BX95) yielded a thermal stability z-score of 0.332.
With COG7 (UniProt P83436) the thermal stability z-score was -0.825.
YARS (UniProt P54577) showed a thermal stability z-score of 0.161.
Work on SEMA3C (UniProt Q99985) yielded a thermal stability z-score of -0.0185.
Target NAT6 (UniProt Q93015) has a thermal stability z-score of 0.0786.
ALDH7A1 (UniProt P49419) showed a thermal stability z-score of 1.36.
Work on KIF4A (UniProt O95239) yielded a thermal stability z-score of -0.0934.
TFB1M (UniProt Q8WVM0) showed a thermal stability z-score of -0.367.
With XXYLT1 (UniProt Q8NBI6) the thermal stability z-score was -0.751.
With FUK (UniProt Q8N0W3) the thermal stability z-score was 0.775.
CDK5RAP2 (UniProt Q96SN8) was tested, and the thermal stability z-score was -0.149.
MGLL (UniProt Q99685) showed a thermal stability z-score of 0.592.
AGO2 (UniProt Q9UKV8) was tested, and the thermal stability z-score was 0.826.
FKBP5 (UniProt Q13451) showed a thermal stability z-score of -0.637.
CIRBP (UniProt Q14011) gave a thermal stability z-score of 0.435.
For RNF34 (UniProt Q969K3), the thermal stability z-score was -0.0298.
Work on PHF5A (UniProt Q7RTV0) yielded a thermal stability z-score of 0.703.
For EIF3H (UniProt O15372), the thermal stability z-score was -0.579.
RSU1 (UniProt Q15404) gave a thermal stability z-score of -0.465.
WASL (UniProt O00401) was tested, and the thermal stability z-score was -0.128.
PIKFYVE (UniProt Q9Y2I7) gave a thermal stability z-score of 0.00547.
With NUP93 (UniProt Q8N1F7) the thermal stability z-score was -0.614.
Target NTMT1 (UniProt Q9BV86) has a thermal stability z-score of -0.319.
With STMN1 (UniProt P16949) the thermal stability z-score was 1.14.
SRRM2 (UniProt Q9UQ35) was tested, and the thermal stability z-score was 2.25.
IBTK (UniProt Q9P2D0) was tested, and the thermal stability z-score was -0.734.
NDRG3 (UniProt Q9UGV2) gave a thermal stability z-score of -0.101.
Target WDR43 (UniProt Q15061) has a thermal stability z-score of -1.62.
USMG5 (UniProt Q96IX5) was tested, and the thermal stability z-score was 1.21.
MYL6 (UniProt P60660) gave a thermal stability z-score of 0.576.
Target NDUFB3 (UniProt O43676) has a thermal stability z-score of 0.00119.
In the case of RASSF1 (UniProt Q9NS23), the thermal stability z-score is reported as -0.0475.
Work on DGAT1 (UniProt O75907) yielded a thermal stability z-score of -0.44.
Target CDC42EP4 (UniProt Q9H3Q1) has a thermal stability z-score of -0.323.

Same assay, conditions: HeLa; lipoamide concentration 100 µM; arsenate co-treatment: none
SMARCAD1 (UniProt Q9H4L7) showed a thermal stability z-score of -0.234.
MBD2 (UniProt Q9UBB5) was tested, and the thermal stability z-score was 0.0688.
Target MAP4K3 (UniProt Q8IVH8) has a thermal stability z-score of -0.0792.
SUN2 (UniProt Q9UH99) gave a thermal stability z-score of -1.36.
With MTMR14 (UniProt Q8NCE2) the thermal stability z-score was -0.656.
VPS72 (UniProt Q15906) gave a thermal stability z-score of -0.00979.
With GOLIM4 (UniProt O00461) the thermal stability z-score was -0.17.
NCOA4 (UniProt Q13772) showed a thermal stability z-score of 0.00243.
In the case of SMARCA2 (UniProt P51531), the thermal stability z-score is reported as -0.0901.
Work on HSP90AB1 (UniProt P08238) yielded a thermal stability z-score of -0.166.
MAEA (UniProt Q7L5Y9) showed a thermal stability z-score of -0.993.
Target DYNC2LI1 (UniProt Q8TCX1) has a thermal stability z-score of -0.0585.
In the case of CREBBP (UniProt Q92793), the thermal stability z-score is reported as -0.0649.
AP2A1 (UniProt O95782) gave a thermal stability z-score of 0.3.
MPP5 (UniProt Q8N3R9) gave a thermal stability z-score of -0.0555.
DHX29 (UniProt Q7Z478) gave a thermal stability z-score of 0.27.
MAPK3 (UniProt P27361) gave a thermal stability z-score of -0.114.
PSIP1 (UniProt O75475) showed a thermal stability z-score of 0.761.
In the case of ARL8A (UniProt Q96BM9), the thermal stability z-score is reported as 0.0879.
SLC30A5 (UniProt Q8TAD4) gave a thermal stability z-score of -0.453.
In the case of ICT1 (UniProt Q14197), the thermal stability z-score is reported as -0.282.
With SGPP1 (UniProt Q9BX95) the thermal stability z-score was -0.299.
COG7 (UniProt P83436) was tested, and the thermal stability z-score was -0.928.
Work on YARS (UniProt P54577) yielded a thermal stability z-score of 0.213.
With SEMA3C (UniProt Q99985) the thermal stability z-score was -0.402.
Work on NAT6 (UniProt Q93015) yielded a thermal stability z-score of -0.349.
In the case of ALDH7A1 (UniProt P49419), the thermal stability z-score is reported as 0.584.
